For this data set the following is noted: 100 kPa, Liquid, Parallel plate method.

The structures appear in SMILES notation. Numbers after ± are expanded uncertainties.

In the case of `OCCO` [1,2-ethanediol], the thermal conductivity (283.15 K) amounted to 0.239 ± 0.02 W/m/K, the thermal conductivity (303.15 K) stood at 0.248 ± 0.02 W/m/K, the thermal conductivity (323.15 K) was 0.257 ± 0.02 W/m/K and the thermal conductivity (343.15 K) worked out at 0.266 ± 0.02 W/m/K.

Regarding `CC(O)CO` (stereo not drawn) [1,2-propanediol], the thermal conductivity is, setting by setting: (283.15 K) 0.206 ± 0.02 W/m/K; (303.15 K) 0.207 ± 0.02 W/m/K; (323.15 K) 0.206 ± 0.02 W/m/K; (343.15 K) 0.207 ± 0.02 W/m/K.

The values are drawn from the NIST ThermoML archive (doi:10.1016/j.jct.2014.12.001).
